# Reference: patent publication US12202840B2, “Compounds for the treatment or alleviation of disorders associated with Tau aggregates” (AC Immune SA, priority 2018, dated 2025)
# Tested on: rTg4510 mice
# Test: Cortex size (cortical atrophy), study of Example 2
# Assay type: in vivo
# Details: once daily by gavage, 7 and 20 mg/kg, statistical significance at the higher dose, FIG. 6A
# Method: Double transgenic rTg4510 mice are an aggressive Tauopathy model expressing the full-length human Tau carrying the P301L mutation (Tau4R0N-P301L) under the control of the tetracycline-inducible CaMKII promoter (Ramsden et al., 2005). Wild-type animals and single transgenic mice expressing only the tetracycline-controlled transactivator (tTA) were used as genotype controls. Mice were treated and tested. The study comprised 4 treatment groups (n=15 female mice/group) with the following group distribution (see Table 6). Compound of the invention or vehicle control were administered once daily by gavage for 12 weeks starting at the age of 5.5 weeks. The Morris Water Maze (MWM) behavioral test was performed after 12.5 weeks of treatment over 5 consecutive days. During MWM testing daily dosing was continued. Behavioral testing (MWM) and biochemical quantification of sarkosyl-insoluble Tau were performed on all mice (n=15 mice/group). Measurement of cortical atrophy and histology for Iba1 were performed on 10 mice/group.
# After behavioral testing, mice were deeply anesthetized by standard injectable anesthesia and transcardially perfused with cold PBS. Brains were then removed and hemi-sagitally hemisected. […] A systematic random set of sections from seven sagittal levels per animal was used to quantify the cortex size.
compound,measurement,value
CN(C)[C@@H]1CCc2c(c3ccc(Nc4ccc5sc(N6CCOCC6)nc5c4)nc3n2C)C1 [Example 2],cortex size,dose-dependent increase
